Test results published in patent US20150164899A1, “INHIBITION OF ADAPTOR ASSOCIATED KINASE 1 FOR THE TREATMENT OF PAIN” (priority 2012, published 2015).
Like-named read-outs stand apart in the source and are kept apart here.

Legend:
[1] = molecular target: T1, AAK1 (full-length human protein) (Homo sapiens, UniProt Q2M2I8); assay: P81 filter plate assay; type: biochemical
T1 construct: NP_055726.2
Protocol: Compounds were serially diluted into a Labcyte LDV plate (Labcyte, cat# LP-0200) using a Mutiprobe (PerkinElmer) and Biomek FX (Beckman Coulter) so that the highest compound concentration was at 96 μM. Compounds were then pinged (75 nL per well) into a Greiner 384-well reaction plate (Greiner, #781076) using an ECHO 550 Liquid Handler (Labcyte). A total of 12 μl reaction buffer (IMAP buffer containing Tween and DTT, from Molecular Devices) was then added to each well of columns 1 and 13 for the negative controls and 12 μl of 2×AAK1 (0.2 nM full-length human protein, NCBI accession no. NP_055726.2) was added to the remaining wells. Enzyme was then pre-incubated with compound for 10 minutes at RT. Reactions were initiated upon Minitrak (PerkinElmer) addition of 12 μl substrate mix containing 2× Mu2 (0.2 μM, full length human protein), 2× cold ATP (2 μM), and 1.3 μCi of hot ^33P-ATP. Reactions proceeded for one hour at RT. Meanwhile, Millipore 384-well P81 filter plates (Millipore, catalog # MZPHN0W10) were placed on a plate washer (Zoom Z W, from Titertek) and pre-wet with 50 μl 1% phosphoric acid. Kinase reactions were then stopped upon addition of 24 μl of 2% phosphoric acid to each well and the Minitrak was then used to transfer 40 μl from each well into the pre-wet Millipore 384-well P81 filter plates. Reaction mixtures were incubated for 10 minutes at RT in the P81 plates, followed by washing five times with 100 μl/well of 1% phosphoric acid using the Zoom filter washer. The bottom of each filter plate was sealed followed by addition of 20 μl Microscint 40 to each well, sealing the top of the plates with Flashplate cover, and then waiting one hour until reading on the TopCount (PerkinElmer).

[2] = molecular target: T2, AAK1 (full length human) in transfected HEK293F cells (Homo sapiens, UniProt Q2M2I8); assay: HEK281 cell-based assay (phospho-mu2 Western blot); settings: HEK281 cell-based assay, read-out: CBA IC50
T2 construct: expressed in transfected cells; host or cells: HEK293F
Protocol: HEK293F cells were cultured in media containing DMEM (Gibco, cat. #11965), 10% FBS (SAFC Biosciences, cat. #12103C), 1×GPS (glutamine, penicillin and streptomycin). On day one, cells were plated on a 10 cm dish so that they are ˜80% confluent at time of transfection. Roughly 12 million cells were in a 10 cm dish at time of transfection. On day two, each dish was transfected with 48 ug DNA and 144 ul Lipofectamine 2000 (Invitrogen, cat.#11668-019). The DNA was comprised of a mixture (per 10 cm dish) containing 3 ug AAK1/HA/pIRES (full length human, NCBI accession no. NP_055726.2), 45 μg Flag/AP2MI/pcDNA (full length human), and 1.5 ml OPTI-MEM. The Lipofectamine 2000 is made up of a mixture (per 10 cm dish) containing 144 μl Lipofectamine 2000 and 1.5 ml OPTI-MEM. Each mixture was transferred to individual 15 ml tubes and incubated at RT for 5 minutes, and then the two mixes were combined and incubated at RT for 20 minutes. Growth media was then aspirated from each 10 cm plate and replaced with 10 ml of DMEM+10% FBS (no GPS). Finally, 3 ml DNA/Lipofectamine mix was added to each 10 cm dish and mix gently followed by incubate of plate overnight at 37° C. and 5% CO2.
On day three, compounds were diluted in 100% DMSO at 1000× final concentration, followed by 3-fold serial dilutions for a total of 5 concentrations tested. Four compounds were tested per 10 cm dish. One ul of each compound dilution was then pipetted into a deep-well, 96-well plate, followed by addition of 500 μl DMEM+0.5% FBS into each well for a 2× final concentration of each compound. Cells were resuspended in a 10 cm dish by simple pipetting (HEK293 cells come off the plate that easy at this point) and then transferred to a 50 ml conical tube and pelleted by centrifugation at 1000 rpm for 5 min. Cell pellets were then resuspended in 2.75 ml DMEM+0.5% FBS per 10 cm dish and 100 μl of cell suspension transferred into each well of 96-well TC plate. Finally, 100 μl of 2× compound diluted in DMEM+0.5% FBS was then added into wells containing cell suspension for a 1× final concentration. Plates were then incubated at 37° C. and 5% CO2 for 3 hours followed by transferring of cell suspensions from each well into 12-tube PCR strips. The PCR strips were spun in a tip rack at 1000 rpm for 5 minutes to pellet cells and media was then removed by pipetting without disturbing the cell pellet.
To prepare for Western Blot analysis, cell pellets were resuspend in 40 ul 1×LDS-PAGE sample buffer (Invitrogen, cat.# NP0008)+2× Halt phophatase and protease inhibitor cocktail (Thermo Scientific, cat.#1861284), followed by sonicating each with microtip sonicator set at 5 for 8-10 seconds. Five ul of 10× NuPage Sample Reducing Agent (with […]) was to each sample followed by heat denaturing at 70 C. for 10 min on PCR machine. A total of 10 μl per sample was loaded into each lane of a 4-20% Tris-Glycine Criterion 26-well gel (Biorad, cat.#345-0034) for the phospho-mu2 blot and 10 μl per lane in a 4-12% Bis-Tris (+MES buffer) NuPAGE 26-well gel (Invitrogen, cat.# WG1403BX10) for the mu2 blot. For controls, 2 ng of phospho-mu2 or 20 ng mu2/Flag proteins were loaded in the last well of each gel. After SDS-PAGE, samples on each gel were transferred to PVDF membrane using an iBlot and membranes were blocked for one hour in TBST+5% milk, followed by wash 3× for 5-10 min with TBST. Criterion gels were probed with rabbit anti-phospho-mu2 (1:5000; a rabbit polyclonal antibody produced by New England Peptide and affinity purified at Lexicon) in TBST+5% BSA, whereas, NuPAGE gels were probed with mouse anti-Flag (1:500; Sigma, cat.# F1804) in TBST+5% milk, and these primary antibodies were incubated overnight at 4° C. on a rocker.

[3] = pyrazolo[1,5-a]pyrimidine-based inhibitors
[4] = Table 1 imidazo[1,2-b]pyridazines

T1 sequence (Q2M2I8 1-863 isoform Q2M2I8-2): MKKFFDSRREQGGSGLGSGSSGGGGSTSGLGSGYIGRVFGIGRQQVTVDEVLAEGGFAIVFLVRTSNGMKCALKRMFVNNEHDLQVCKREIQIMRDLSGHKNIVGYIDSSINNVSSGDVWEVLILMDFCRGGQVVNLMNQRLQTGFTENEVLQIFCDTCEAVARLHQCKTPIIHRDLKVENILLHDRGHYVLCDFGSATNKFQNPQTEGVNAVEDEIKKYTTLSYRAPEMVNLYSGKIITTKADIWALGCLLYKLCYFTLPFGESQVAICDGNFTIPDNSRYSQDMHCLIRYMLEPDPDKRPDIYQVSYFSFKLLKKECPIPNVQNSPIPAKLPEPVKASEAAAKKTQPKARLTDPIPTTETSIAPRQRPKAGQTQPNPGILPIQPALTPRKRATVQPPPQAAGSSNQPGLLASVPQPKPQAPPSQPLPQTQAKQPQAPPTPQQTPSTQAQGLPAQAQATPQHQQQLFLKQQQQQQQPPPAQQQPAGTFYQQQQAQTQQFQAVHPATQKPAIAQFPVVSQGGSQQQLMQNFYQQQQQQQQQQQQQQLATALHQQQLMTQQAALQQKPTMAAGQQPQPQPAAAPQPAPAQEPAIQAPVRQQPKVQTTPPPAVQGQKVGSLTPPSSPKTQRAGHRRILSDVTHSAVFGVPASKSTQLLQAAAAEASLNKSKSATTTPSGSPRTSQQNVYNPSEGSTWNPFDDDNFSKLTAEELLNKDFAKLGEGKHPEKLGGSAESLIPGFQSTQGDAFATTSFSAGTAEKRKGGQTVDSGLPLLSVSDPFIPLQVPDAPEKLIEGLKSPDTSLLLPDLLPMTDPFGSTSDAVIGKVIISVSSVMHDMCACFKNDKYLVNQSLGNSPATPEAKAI
T2 sequence (Q2M2I8 1-863 isoform Q2M2I8-2): as above

IC50 [1, 3] | IC50 [2, 3] | IC50 [1, 4] | IC50 [2, 4] | SMILES
≤ 10 nM | ≤ 10 nM |  |  | COc1ncccc1-c1cnn2ccc(N3CCN(C(=O)OCCF)CC3)nc12
≤ 10 nM |  |  |  | COCCOC(=O)N1CCN(c2ccn3ncc(-c4ccccc4OC)c3n2)CC1
≤ 10 nM | ≤ 100 nM |  |  | COc1ncccc1-c1cnn2ccc(NCCCC(F)(F)F)nc12
≤ 10 nM | ≤ 100 nM |  |  | FC(F)(F)CN1CCCC1CNc1ccn2ncc(Br)c2n1 (centres unmarked)
≤ 100 nM |  |  |  | COc1ncccc1-c1cnn2ccc(N3CCN(S(=O)(=O)CC(C)C)CC3)nc12
≤ 1000 nM |  |  |  | COc1ncccc1-c1cnn2ccc(N(CCCC(F)(F)F)C(C)=O)nc12
≤ 10 nM | ≤ 100 nM |  |  | CCOc1ccccc1-c1cnn2ccc(NC[C@@H]3CCC(=O)N3CCC(C)(C)C)nc12
≤ 10 nM | ≤ 10 nM |  |  | COc1ccccc1-c1cnn2ccc(NC[C@@H]3CCC(=O)N3CCC(C)(C)C)nc12
 |  | ≤ 10 nM | ≤ 1000 nM | COc1ccccc1-c1cnc2ccc(NC[C@@H]3CCC(=O)N3CCC(C)(C)C)nn12
≤ 10 nM | ≤ 100 nM |  |  | COc1ncccc1-c1cnn2ccc(NC[C@@H]3CCC(=O)N3CCC(C)(C)C)nc12
≤ 10 nM | ≤ 100 nM |  |  | COc1cnccc1-c1cnn2ccc(NC[C@@H]3CCC(=O)N3CCC(C)(C)C)nc12
≤ 10 nM |  |  |  | CC(C)(C)CCN1C(=O)CC[C@H]1CNc1ccn2ncc(-c3ccccc3)c2n1
≤ 100 nM |  |  |  | CN(C(=O)CC1CC1)[C@H]1CCN(c2ccn3ncc(-c4ccccn4)c3n2)C1
≤ 100 nM |  |  |  | COc1ccccc1-c1cnn2ccc(N3CC[C@H](N(C)C(=O)CC(F)(F)F)C3)nc12
 |  | ≤ 100 nM | ≤ 1000 nM | CN(C(=O)CC(C)(C)C)[C@H]1CCN(c2ccc3ncc(-c4cccnc4O)n3n2)C1
≤ 100 nM |  |  |  | CN(C(=O)CC(F)(F)F)[C@H]1CCN(c2ccn3ncc(Br)c3n2)C1
≤ 100 nM |  |  |  | CN(C(=O)N1CCCC1)[C@H]1CCN(c2ccn3ncc(Br)c3n2)C1
 |  | ≤ 100 nM |  | CN(C(=O)N1CCCC1)[C@H]1CCN(c2ccc3ncc(-c4ccccn4)n3n2)C1
≤ 1000 nM |  |  |  | CCCC(=O)N(C)[C@H]1CCN(c2ccn3ncc(-c4ccccn4)c3n2)C1
≤ 100 nM |  |  |  | COc1ccccc1-c1cnn2ccc(N3CC[C@H](N(C)C(=O)OC(C)C)C3)nc12
≤ 100 nM |  |  |  | CC(C)OC(=O)N(C)[C@H]1CCN(c2ccn3ncc(-c4ccncc4)c3n2)C1
≤ 10 nM | ≤ 100 nM |  |  | Cc1cc(-c2cnn3ccc(N4CC[C@H](N(C)C(=O)OC(C)(C)C)C4)nc23)ccn1
≤ 10 nM | ≤ 10 nM |  |  | COc1ncccc1-c1cnn2ccc(N3CCN(C(=O)OC4CCCC4)CC3)nc12
≤ 10 nM | ≤ 10 nM |  |  | CCOC(=O)N1CCN(c2ccn3ncc(-c4cccnc4OCC)c3n2)CC1
≤ 10 nM | ≤ 100 nM |  |  | CCOC(=O)N1CCN(c2ccn3ncc(-c4cccnc4OC)c3n2)CC1
≤ 100 nM |  |  |  | CCOC(=O)c1cnn2ccc(N3CCN(C(=O)OC(C)C)CC3)nc12
≤ 100 nM |  |  |  | CC(C)Cn1cc(-c2cnn3ccc(N4CCN(C(=O)OC(C)C)CC4)nc23)cn1
≤ 100 nM |  |  |  | Cc1nn(C)c(C)c1-c1cnn2ccc(N3CCN(C(=O)OC(C)C)CC3)nc12

IC50 [1, 3] | IC50 [2, 3] | IC50 [1, 4] | IC50 [2, 4] | SMILES
≤ 100 nM | ≤ 1000 nM |  |  | CC(C)OC(=O)N1CCN(c2ccn3ncc(-c4cccnc4Cl)c3n2)CC1
≤ 10 nM | ≤ 100 nM |  |  | CC(C)OC(=O)N1CCN(c2ccn3ncc(-c4cccnc4O)c3n2)CC1
≤ 10 nM | ≤ 100 nM |  |  | CC(C)OC(=O)N1CCN(c2ccn3ncc(-c4cccnc4OC(C)C)c3n2)CC1
≤ 10 nM | ≤ 10 nM |  |  | COc1ncccc1-c1cnn2ccc(N3CCN(C(=O)OC(C)C)CC3=O)nc12
≤ 10 nM | ≤ 10 nM |  |  | COc1ncccc1-c1cnn2ccc(C3=CCN(C(=O)OC(C)C)CC3)nc12
≤ 100 nM |  |  |  | COc1ncccc1-c1cnn2ccc(N3CCN(C(=O)OC(C)C)C(C)(C)C3)nc12
≤ 10 nM | ≤ 10 nM |  |  | COc1ccc(-c2cnn3ccc(N4CCN(C(=O)OC(C)C)CC4)nc23)c(OC)n1
≤ 10 nM |  |  |  | CCOc1cccc(-c2cnn3ccc(N4CCN(C(=O)OC(C)C)CC4)nc23)c1
≤ 10 nM | ≤ 10 nM |  |  | COc1cc(-c2cnn3ccc(N4CCN(C(=O)OC(C)C)CC4)nc23)c(OC)nn1
≤ 100 nM |  |  |  | CC(C)OC(=O)N1CCN(c2ccn3ncc(-c4cnccc4F)c3n2)CC1
≤ 10 nM |  |  |  | COc1ccnc(-c2cnn3ccc(N4CCN(C(=O)OC(C)C)CC4)nc23)c1
≤ 10 nM | ≤ 100 nM |  |  | COc1ccncc1-c1cnn2ccc(N3CCN(C(=O)OC(C)C)CC3)nc12
≤ 10 nM | ≤ 10 nM |  |  | COc1ccc(-c2cnn3ccc(N4CCN(C(=O)OC(C)C)CC4)nc23)nc1
≤ 10 nM | ≤ 100 nM |  |  | COc1cncc(-c2cnn3ccc(N4CCN(C(=O)OC(C)C)CC4)nc23)c1
≤ 10 nM | ≤ 1000 nM |  |  | COc1ccc(-c2cnn3ccc(N4CCN(C(=O)OC(C)C)CC4)nc23)cn1
≤ 100 nM |  |  |  | CCNC(=O)c1cnn2ccc(N3CCN(C(=O)OC(C)C)CC3)nc12
≤ 1000 nM |  |  |  | CC(C)NC(=O)c1cnn2ccc(N3CCN(C(=O)OC(C)C)CC3)nc12
≤ 100 nM |  |  |  | CNC(=O)c1cnn2ccc(N3CCN(C(=O)OC(C)C)CC3)nc12
≤ 100 nM |  |  |  | CC(C)OC(=O)N1CCN(c2ccn3ncc(-c4cnccn4)c3n2)CC1
≤ 10 nM | ≤ 100 nM |  |  | CC(C)OC(=O)N1CCN(c2ccn3ncc(-c4ccccn4)c3n2)CC1
≤ 10 nM |  |  |  | CC(C)OC(=O)N1CCN(c2ccn3ncc(-c4cccnc4)c3n2)CC1
≤ 100 nM |  |  |  | CC(C)OC(=O)N1CCN(c2ccn3ncc(-c4cncnc4)c3n2)CC1
≤ 100 nM |  |  |  | CC(C)OC(=O)N1CCN(c2ccn3ncc(C(C)C)c3n2)CC1
≤ 10 nM |  |  |  | CC(C)OC(=O)N1CCN(c2ccn3nccc3n2)CC1
≤ 100 nM |  |  |  | COc1ncccc1-c1cnn2ccc(N3CC(N(C)C(=O)OC(C)C)C3)nc12
≤ 100 nM |  |  |  | CC(C)(C)OC(=O)N1CC=C(c2ccn3nccc3n2)CC1
≤ 1000 nM |  |  |  | COc1ncccc1-c1cnn2ccc(N3CC(N(C)C(=O)OC(C)(C)C)C3)nc12
